This is an account of results in ChEMBL document CHEMBL1134734, “Introduction of alkynyl chains on C-8 of adenosine led to very selective antagonists of the A(3) adenosine receptor” (Bioorg Med Chem Lett, 2001).

The target in experiment [1] is Adenosine receptor A2a (Homo sapiens, UniProt P29274). As to the kind of experiment: [3H]NECA […] binding in CHO cells expressing human recombinant A2A adenosine receptor. Format: cell-based.
Experiment [2] addresses T1, Adenosine receptor A3 (Homo sapiens, UniProt P0DMS8).
T1 sequence (P0DMS8 whole entry): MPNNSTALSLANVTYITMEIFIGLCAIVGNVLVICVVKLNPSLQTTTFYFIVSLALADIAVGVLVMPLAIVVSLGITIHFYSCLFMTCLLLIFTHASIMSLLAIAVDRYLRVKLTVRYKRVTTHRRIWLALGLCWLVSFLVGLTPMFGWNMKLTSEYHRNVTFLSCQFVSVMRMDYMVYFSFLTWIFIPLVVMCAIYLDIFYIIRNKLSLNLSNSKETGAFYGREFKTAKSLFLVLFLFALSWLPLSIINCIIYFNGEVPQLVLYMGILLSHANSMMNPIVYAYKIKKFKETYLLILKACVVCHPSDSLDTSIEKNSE
As to the kind of experiment: [3H]NECA […] binding in CHO cells expressing human Adenosine A3 receptor. Format: cell-based.

The target of experiment [3] is T2, Adenosine receptor A2b (Homo sapiens, UniProt P29275).
T2 sequence (P29275 whole entry): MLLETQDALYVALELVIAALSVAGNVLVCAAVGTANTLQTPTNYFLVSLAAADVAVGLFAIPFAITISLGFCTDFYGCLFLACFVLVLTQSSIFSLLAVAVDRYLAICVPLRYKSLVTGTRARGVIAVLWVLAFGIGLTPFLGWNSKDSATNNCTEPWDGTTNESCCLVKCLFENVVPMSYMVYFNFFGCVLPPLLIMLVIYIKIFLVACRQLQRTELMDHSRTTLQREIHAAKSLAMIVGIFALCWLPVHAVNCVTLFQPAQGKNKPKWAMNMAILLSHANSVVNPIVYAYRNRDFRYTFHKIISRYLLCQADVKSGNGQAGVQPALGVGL
As to the kind of experiment: Antagonistic activity against Adenosine A2B receptor. Format: functional.

Experiment [4] concerns the target T3, Adenosine receptor A1 (Homo sapiens, UniProt P30542).
T3 sequence (P30542 whole entry): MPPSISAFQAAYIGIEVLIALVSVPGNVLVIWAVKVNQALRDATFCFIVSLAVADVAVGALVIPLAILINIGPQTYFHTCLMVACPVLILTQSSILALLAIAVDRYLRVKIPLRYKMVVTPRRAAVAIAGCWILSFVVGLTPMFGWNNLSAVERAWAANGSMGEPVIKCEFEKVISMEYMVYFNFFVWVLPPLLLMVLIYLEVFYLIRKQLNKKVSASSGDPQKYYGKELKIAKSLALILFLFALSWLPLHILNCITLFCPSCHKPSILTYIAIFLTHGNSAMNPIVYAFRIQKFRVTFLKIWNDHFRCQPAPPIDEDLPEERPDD
As to the kind of experiment: Displacement of [3H]-CCPA from CHO cells expressing human recombinant Adenosine A1 receptor. The experiment is classed as cell-based.

The target in experiment [5] is T4, Adenosine receptor A3 (Homo sapiens) (UniProt P0DMS8).
T4 sequence (whole entry): T1 sequence (P0DMS8 whole entry)
As to the kind of experiment: Stimulation of [35S]GTP gamma-S binding in CHO cell membranes expressing human A3 receptor at 78.8 uM. Format: functional. A general note: Binding of GTPγS marks nucleotide exchange on a G protein.

Experiment [6] deals with T2, Adenosine receptor A2b. As to the kind of experiment: Receptor stimulated adenylyl cyclase activity in CHO cells expressing human recombinant Adenosine A2B receptor. The experiment is classed as functional, cell-based.
Experiment [7] has as its target T4, Adenosine receptor A3 (Homo sapiens). The note with it: CHO, 1 uM.
Description: Inhibition of [35S]GTP gamma-S binding to CHO cell membranes expressing human A3 receptor at 1 uM
The target is the same in experiment [8]. As to the kind of experiment: Stimulation of [35S]GTP gamma-S binding in CHO cell membranes expressing human A3 receptor at 983 uM. The experiment is classed as functional.

Adenosine receptor A2a, sequence (P29274 whole entry): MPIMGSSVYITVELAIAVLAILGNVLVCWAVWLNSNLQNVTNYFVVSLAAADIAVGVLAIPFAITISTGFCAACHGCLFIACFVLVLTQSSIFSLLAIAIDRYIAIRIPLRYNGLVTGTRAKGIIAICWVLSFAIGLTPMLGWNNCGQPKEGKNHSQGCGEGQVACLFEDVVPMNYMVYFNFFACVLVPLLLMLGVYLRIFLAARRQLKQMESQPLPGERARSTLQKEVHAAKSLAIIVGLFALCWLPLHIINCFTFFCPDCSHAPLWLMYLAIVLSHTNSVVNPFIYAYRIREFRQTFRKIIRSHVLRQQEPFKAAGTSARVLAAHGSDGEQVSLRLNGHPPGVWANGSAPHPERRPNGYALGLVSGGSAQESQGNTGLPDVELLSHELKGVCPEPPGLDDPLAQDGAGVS

For `CCn1c(C#Cc2ccccc2)nc2c(N)ncnc21`, the inhibition constant Ki in experiment [1] came out at 0.6 µM; in experiment [2], 0.086 µM. For the same molecule, the IC50 in experiment [3] was not below 100 µM.
With `Nc1ncnc2c1nc(C#Cc1ccccc1)n2[C@@H]1O[C@H](CO)C(O)C1O` (single isomer, unassigned), the inhibition constant Ki in experiment [4] was more than 100 µM; in experiment [1] it was more than 100 µM; in experiment [2] it was 0.79 µM. This molecule displayed an Agonist effect in experiment [5] of 0.2%. Moreover, the EC50 in experiment [6] is more than 100 µM.
In the case of `CCNC(=O)[C@H]1O[C@@H](n2cnc3c(N)ncnc32)[C@H](O)[C@@H]1O`, in experiment [7], the Agonist effect stood at 100%.
On to `CCCCC#Cc1nc2c(N)ncnc2n1[C@@H]1O[C@H](CO)C(O)C1O` (single isomer, unassigned), for which the Ki in experiment [4] and in experiment [1] was more than 100 µM in each case. In addition, in experiment [6], the EC50 is more than 100 µM.
As to `Nc1ncnc2c1nc(/C=C/C(=O)c1ccccc1)n2[C@@H]1O[C@H](CO)[C@@H](O)[C@H]1O`, the Ki in experiment [4] was more than 100 µM; in experiment [1], 46.6 µM; in experiment [2], 9.83 µM. The EC50 in experiment [6] is more than 100 µM. The molecule further registered an Agonist effect in experiment [8] of 1.9%.

A word on the Ki: it is the dissociation constant of the complex between target and ligand, obtained from inhibition or displacement. Broadly, the IC50 is the concentration at which inhibition is half-maximal. As a reminder, the EC50 is the concentration that produces a half-maximal response.
